Patent publication US11692222B2, “Animal model of non-alcoholic liver disease and composition of diagnosis, prevention or treatment for non-alcoholic liver disease” (KOREA ADVANCED INSTITUTE OF SCIENCE AND TECHNOLOGY, priority 2018, dated 2023)

Legend:
[1] = test system: DKO mice (Pten−/−;Sav1−/−); assay: MK-2206 treatment of 3-week-old DKO mice for 2 weeks (fatty liver); type: in vivo, mouse; conditions: 66 mg/kg i.p. every other day for 2 weeks, vs vehicle
Protocol: (§1) Adenovirus for overexpression of CRE, YAP5SA, TAZ4SA, or GFP (control) and AAV-saCas9-sgIrs2 or sgCtl in the mouse liver were injected into the tail vain of […], respectively. The mice were deprived of food for 16 hours at day 4 (YAP5SA, TAZ4SA, and GFP) or week 4 (CRE and GFP) after adenovirus injection. MK-2206 (Selleckchem; S1078) was prepared in 30% Captisol (CyDex Pharmaceuticals; RC-0C7) and administered to DKO mice by intraperitoneal injection at a dose of 66 mg/kg every other day for 2 weeks, beginning at 3 or 12 weeks of age.
Given the lack of treatments for NASH, the present inventors next asked whether pharmacological inhibition of AKT could ameliorate fatty liver and slow cancer progression in DKO mice. To this end, the present inventors administered the pan-AKT inhibitor MK-2206 (phase II clinical trials) intraperitoneally to 3-week-old DKO mice.
FIGS. 8b to 8d are graphs of the result of liver-to-body weight ratio percentage, the analysis of liver enzymes in the serum, the qPCR analysis of lipogenesis-related gene expression in the liver of control (white bars) and MK-2206 (red bars), respectively.

[2] = test system: DKO mice (Pten−/−;Sav1−/−); assay: MK-2206 treatment of 12-week-old DKO mice for 2 weeks (liver cancer); type: in vivo, mouse
Protocol: as §1
Further, to investigate the suppression of liver cancer, MK-2206 was injected to 12-week-old DKO mice that 80% of them had liver tumor (FIG. 1b). The graphs of FIG. 8f are the result of the result of liver-to-body weight ratio (F), liver tumor number and size (G), serum analysis (H) of the experiment shown in FIG. 8f. The graph representing the quantification analysis of Ki-67^+ hepatocytes of specimen is shown in FIG. 8h, and a graph representing the qPCR analysis of the expression of genes related to fibrosis (Acta2, desmin, and Tgfb), cell death or injury (Hmox1 and Gadd153), or inflammation (Tnfa) is shown in FIG. 8i.

[3] = 12-week-old DKO mice, 2 weeks treatment, vs vehicle

NC1(c2ccc(-c3nc4ccn5c(=O)[nH]nc5c4cc3-c3ccccc3)cc2)CCC1 [MK-2206]
expression of lipogenesis-related genes (Fasn, Acc1, Srebp1c), qPCR in liver [1]: lower expression of lipogenesis-related genes | fatty liver (macroscopic, H&E, Oil red O) [1]: less fatty liver | liver fibrosis (Sirius red) [1]: reduced liver fibrosis | liver function (liver enzymes in serum) [1]: improved liver function | liver weight (liver-to-body weight ratio) [1]: decreased liver weight | fatty liver and tumorigenesis ([2]; 12-week-old DKO mice, 66 mg/kg i.p. every other day for 2 weeks, vs vehicle): reduced fatty liver and tumorigenesis | Ki-67-positive cells [2, 3]: fewer Ki-67-positive cells | YAP expression (IHC) [2, 3]: without a corresponding change in YAP expression | expression of genes related to fibrosis (Acta2, desmin, Tgfb), cell death or injury (Hmox1, Gadd153) and inflammation (Tnfa), qPCR [2, 3]: reduced expression of genes related to fibrosis | fibrosis (Picrosirius red) [2, 3]: reduced fibrosis | hepatocyte TAZ expression (IHC) [2, 3]: lower levels of hepatocyte TAZ expression | hepatocytes with excessive lipid droplets (H&E) [2, 3]: fewer hepatocytes with excessive lipid droplets | liver color [2, 3]: normalized liver color | liver size (liver-to-body weight ratio) [2, 3]: reduced liver size | tumor nodule size [2, 3]: reduction in tumor nodule size | development of NAFLD and liver cancer in DKO mice ([2]; overall conclusion, DKO mice treated from 3 or 12 weeks of age): markedly attenuates the development of NAFLD and liver cancer
